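Assay format: 96-well plates, 48-hour exposure. Here, GI50 denotes the concentration required for 50% inhibition of growth. TGI: concentration producing complete growth inhibition.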

Experimental findings from PubChem BioAssay (NCI) are described below.

Some test systems named below: DU-145 prostate; SK-MEL-5 melanoma; SF-268 CNS; OVCAR-8 ovarian; SW-620 colon; UACC-257 melanoma; T-47D breast; OVCAR-5 ovarian; RPMI-8226 leukemia; SK-OV-3 ovarian.
Common to all, as to test: NCI tumour cell line growth inhibition, 48 h

As to `CCOC(=O)c1nc2ccc(C(F)(F)F)cc2nc1Oc1cc(OC)cc(OC)c1`, the TGI with DU-145 prostate is above 100 µM; in the experiment with SK-MEL-5 melanoma it was 79.1 µM; in the experiment on SF-268 CNS, above 100 µM; with OVCAR-8 ovarian it was above 100 µM; in the experiment on SW-620 colon, above 100 µM; in the experiment with UACC-257 melanoma, above 100 µM. For the same molecule, the TGI in the experiment with T-47D breast, in the experiment on OVCAR-5 ovarian, with RPMI-8226 leukemia and with SK-OV-3 ovarian was above 100 µM throughout.

With `NNC(=O)Cn1c2ccc(Br)cc2c2nc3ccccc3nc21`, the TGI in the experiment with DU-145 prostate, in the experiment on SK-MEL-5 melanoma, in the experiment with SF-268 CNS, in the experiment with OVCAR-8 ovarian, in the experiment with SW-620 colon and in the experiment on UACC-257 melanoma was above 100 µM throughout. The TGI in the experiment with T-47D breast, in the experiment with OVCAR-5 ovarian, with RPMI-8226 leukemia and with SK-OV-3 ovarian was above 100 µM throughout.

As for `COC(=O)C(Cc1ccccc1)NP(=O)(O)OCC1OC(n2cc(F)c(=O)[nH]c2=O)CC1O` (stereo unspecified), the TGI in the experiment on DU-145 prostate, in the experiment with SK-MEL-5 melanoma, in the experiment with SF-268 CNS, in the experiment with OVCAR-8 ovarian, with SW-620 colon and in the experiment on UACC-257 melanoma was above 100 µM each time. Further, the TGI in the experiment with T-47D breast, in the experiment on OVCAR-5 ovarian, in the experiment on RPMI-8226 leukemia and in the experiment with SK-OV-3 ovarian was above 100 µM throughout.

With `CC(=O)Nc1ccc(OC2=CCN(C)CC2)cc1`, the TGI in the experiment with DU-145 prostate, with SK-MEL-5 melanoma, with SF-268 CNS, with OVCAR-8 ovarian, in the experiment with SW-620 colon and in the experiment with UACC-257 melanoma was above 100 µM throughout. In addition, the TGI with T-47D breast, in the experiment on OVCAR-5 ovarian, in the experiment on RPMI-8226 leukemia and in the experiment with SK-OV-3 ovarian was above 100 µM in each case.

Take `CCOc1cc(C2CC(c3ccc(NS(=O)(=O)c4cc([N+](=O)[O-])ccc4C)cc3)=NN2c2ccc([N+](=O)[O-])cc2[N+](=O)[O-])ccc1O` (stereo unspecified): the TGI was 45.1 µM in the experiment with DU-145 prostate; 23.1 µM in the experiment with SK-MEL-5 melanoma; 43.9 µM with SF-268 CNS; 49 µM with OVCAR-8 ovarian; above 100 µM with SW-620 colon; 59.5 µM with UACC-257 melanoma. For the same molecule, the TGI in the experiment on T-47D breast was 60.2 µM; in the experiment with OVCAR-5 ovarian it was 60.3 µM; in the experiment on RPMI-8226 leukemia, above 100 µM; with SK-OV-3 ovarian, 10.4 µM.

Turning to `C[C@@H]1CC[C@H]2C(C(O)CCCCC(O)C3=C(C(F)(F)F)O[C@@H]4O[C@@]5(C)CC[C@H]6[C@H](C)CC[C@@H]3[C@@]46OO5)=C(C(F)(F)F)O[C@@H]3O[C@@]4(C)CC[C@@H]1[C@]32OO4` (stereo partly specified), the GI50 was 99.9 µM in the experiment with DU-145 prostate; 24.7 µM in the experiment with SK-MEL-5 melanoma; 19.5 µM in the experiment on SF-268 CNS; 11.3 µM with OVCAR-8 ovarian; 5.64 µM with SW-620 colon; 14.9 µM with UACC-257 melanoma. Moreover, the GI50 was 2.52 µM in the experiment on T-47D breast, 5.06 µM in the experiment with RPMI-8226 leukemia and above 100 µM in the experiment on SK-OV-3 ovarian. The TGI with DU-145 prostate, in the experiment with SK-MEL-5 melanoma, with SF-268 CNS, in the experiment with OVCAR-8 ovarian, in the experiment with SW-620 colon and in the experiment with UACC-257 melanoma was above 100 µM each time. For the same molecule, the values for the TGI with T-47D breast, in the experiment on RPMI-8226 leukemia and in the experiment on SK-OV-3 ovarian were 9.02 µM, above 100 µM and above 100 µM, respectively.

With `COC(=O)c1c(OC(C)=O)ccc2c1c1c(n2C)C(=O)c2ccccc2C1=O`, the TGI in the experiment with DU-145 prostate is 62.5 µM; with SK-MEL-5 melanoma, 47 µM; in the experiment with SF-268 CNS, above 100 µM; in the experiment with OVCAR-8 ovarian it was above 100 µM; with UACC-257 melanoma, 44.8 µM; in the experiment with T-47D breast, 36.9 µM. Also, the TGI was above 100 µM in the experiment with OVCAR-5 ovarian, 28 µM with RPMI-8226 leukemia and 46.2 µM with SK-OV-3 ovarian.

Regarding `CSc1n[nH]c(N)c1C(=O)Nc1ccc(C)cc1`, the TGI was above 100 µM in the experiment with DU-145 prostate; above 100 µM in the experiment on SK-MEL-5 melanoma; above 100 µM in the experiment on SF-268 CNS; above 100 µM in the experiment on SW-620 colon; above 100 µM in the experiment on UACC-257 melanoma; 94.8 µM with T-47D breast. In addition, the TGI with OVCAR-5 ovarian, with RPMI-8226 leukemia and in the experiment with SK-OV-3 ovarian was above 100 µM throughout.

Regarding `COc1ccc2nc3cc([N+](=O)[O-])ccc3c(Nc3ccc(S(=O)(=O)NC(C)=O)cc3)c2c1`, the TGI in the experiment with DU-145 prostate, in the experiment on SK-MEL-5 melanoma, in the experiment on SF-268 CNS, in the experiment on SW-620 colon, in the experiment on UACC-257 melanoma and in the experiment with T-47D breast was above 100 µM throughout. The TGI in the experiment with OVCAR-5 ovarian, with RPMI-8226 leukemia and with SK-OV-3 ovarian was above 100 µM in each case.

Consider `O=c1[nH]nc(-c2ccccc2)n1/N=C/c1cccnc1`, for which the TGI in the experiment on DU-145 prostate, in the experiment with SK-MEL-5 melanoma, in the experiment on SF-268 CNS, in the experiment on OVCAR-8 ovarian, with SW-620 colon and in the experiment on UACC-257 melanoma was above 100 µM throughout. Moreover, the TGI with T-47D breast, in the experiment on OVCAR-5 ovarian and in the experiment with RPMI-8226 leukemia was above 100 µM throughout.

Consider `CC1(C)CC(C)(C)C1=NNC(N)=O`, for which the TGI with DU-145 prostate, with SK-MEL-5 melanoma, in the experiment with SF-268 CNS, in the experiment with OVCAR-8 ovarian, in the experiment on SW-620 colon and in the experiment on UACC-257 melanoma was above 100 µM each time. The TGI in the experiment with T-47D breast, with OVCAR-5 ovarian and with SK-OV-3 ovarian was above 100 µM each time.

As for `CC(C)C(OC(=O)c1ccc(NCc2cc(O)ccc2O)cc1)C(C)C`, the TGI with DU-145 prostate was found to be 20.9 µM; in the experiment on SK-MEL-5 melanoma, 7.45 µM; with SF-268 CNS, 5.3 µM; in the experiment on OVCAR-8 ovarian it was 3.77 µM; in the experiment on SW-620 colon, 7.95 µM; in the experiment on UACC-257 melanoma, 3.83 µM. The results for the TGI with T-47D breast, in the experiment on OVCAR-5 ovarian and in the experiment on RPMI-8226 leukemia were 3.4 µM, 6.16 µM and 0.931 µM, respectively.

As for `COc1cc(/C=C2/C[C@H]3[C@@H]4CC=C5C[C@@H](OC(C)=O)CC[C@]5(C)[C@H]4CC[C@]3(C)NC2=O)cc(OC)c1OC`, the TGI was 55.3 µM in the experiment on DU-145 prostate; above 100 µM with SK-MEL-5 melanoma; 76 µM in the experiment on SF-268 CNS; above 100 µM in the experiment with OVCAR-8 ovarian; above 100 µM in the experiment on SW-620 colon; 97.1 µM with UACC-257 melanoma. The TGI is 72.8 µM with T-47D breast, 92.2 µM in the experiment on OVCAR-5 ovarian and 60.3 µM in the experiment on SK-OV-3 ovarian.
